Results reported in patent publication US7060733B2, “Methods for treating pancreatitis with curcumin compounds and inhibitors of reactive oxygen species” (The Regents of the University of California, priority 2002, dated 2006).
Entries after “also recorded” stand apart in the source; their conditions may differ.

What was measured:
NF-κB = assay: Curcumin and N-acetylcysteine alone and in combination, NF-κB activation in CCK-stimulated acinar cells; assay type: cell-based, rat; settings: curcumin 50 μM alone, 0.1 μM CCK
Protocol: To measure the effects of curcumin compounds and ROS inhibitors, EMSAs and nuclear protein extractions were conducted as provided above. […] EMSAs for NF-κB activation were performed on nuclear proteins extracted from each sample.

CCK receptor = biological target: T1, CCK receptor (Rattus norvegicus, UniProt P30551); assay: In vivo pancreatic secretion assay
T1 construct: from tissue; host or cells: living rat, pancreas (acinar cells)
T1 sequence (P30551 1-444): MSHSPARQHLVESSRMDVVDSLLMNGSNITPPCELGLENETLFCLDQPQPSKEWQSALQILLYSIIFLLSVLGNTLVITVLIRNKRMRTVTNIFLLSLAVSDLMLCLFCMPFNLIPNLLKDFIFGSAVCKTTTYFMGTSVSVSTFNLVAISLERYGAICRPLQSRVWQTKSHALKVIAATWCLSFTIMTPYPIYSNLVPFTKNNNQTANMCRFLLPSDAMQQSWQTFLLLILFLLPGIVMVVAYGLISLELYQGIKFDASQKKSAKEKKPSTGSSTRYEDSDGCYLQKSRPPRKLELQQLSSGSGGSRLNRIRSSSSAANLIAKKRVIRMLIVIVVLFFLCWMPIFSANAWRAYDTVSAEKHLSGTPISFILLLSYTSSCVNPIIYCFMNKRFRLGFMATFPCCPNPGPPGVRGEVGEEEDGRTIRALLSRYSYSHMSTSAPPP
Protocol: To rule out the possibility that the effect of curcumin was through inhibition of the action of cerulein or CCK-8 on CCK receptor activation, the effect of pancreatic secretion was tested.
Pancreatic secretion in test rats was measured in vivo by methods known in the art. See Gukovskaya A S, et al. (2002). Briefly, biliopancreatic secretion was allowed to drain freely for 30 minutes before initiation of the experiment. Then secretion was collected in tubes in 10-minute fractions to determine the basal amylase output, after which 0.25 μg/kg cerulein was given as an i.v. bolus and collection continued for 40 minutes in a similar manner. Collection volumes were measured by weigh, and the amylase output was calculated by determining amylase concentration in the collected fractions. The mean amylase output obtained from two consecutive 10-minute fractions after the stabilization period was taken as the basal secretion and considered as 100%. The results were expressed as percentage increase over basal amylase output 40 minutes after cerulein or vehicle infusion.

pancreatic acinar cells = assay: LDH release from pancreatic acinar cells; assay type: cell-based, rat; settings: 100 μM curcumin, control acinar cells or cells stimulated with 100 nM CCK-8
AP-1 [1] = assay: CCK-induced AP-1 activation in isolated pancreatic acinar cells (EMSA); assay type: cell-based, rat
Protocol: To confirm that the effects of curcumin occur in the pancreatic acinar cell, the effects of curcumin on the activation of NF-κB and AP-1 in vitro in CCK-stimulated pancreatic acini. Pancreatic acini were prepared from rat pancreas using the collagenase digestion method as described by Pandol S J, et al. (1982) J. Biol. Chem. 257:12024–12029, which is herein incorporated by reference, and then incubated at 37° C. in 199 medium (GIBCO, Rockville, Md.) known in the art. […] EMSAs for NF-κB and AP-1 were performed on nuclear proteins extracted from each sample as provided above. Nuclear protein extracts were prepared by methods known in the art. […] Briefly, samples of pancreatic tissue or isolated acini were rinsed in ice-cold PBS and homogenized in hypotonic Buffer A (20 mM β-glycerophosphate, 10 mM HEPES, pH 7.6, 1.5 mM MgCl2, 10 mM KCl, 10 mM Na2MoO4, 0.1 mM Na3VO4, 1 mM dithiothreitol (DTT), 1 mM phenylmethylsulfonyl fluoride (PMSF), 5 μg/ml each of protease inhibitors pepstatin, leupeptin, chymostatin, antipain and aprotinin). After incubating on ice for about 20 to about 25 minutes, the nonionic detergent Igepal CA-630 (Sigma, St. Louis, Mo.) was added to a final concentration of 0.3 to 0.4% (v/v), followed by an additional incubation on ice for about 1 to about 2 minutes. The crude nuclear pellet was collected by microcentrifugation for 30 seconds. The supernatant (cytosolic protein) was removed, and the nuclear pellet was resuspended in the high-salt buffer C (25% glycerol, 20 mM β-glycerophosphate, 10 mM HEPES, 1.5 mM MgCl2, 420 mM NaCl, 0.2 mM EDTA, 10 mM Na2MoO4, 0.1 mM Na3VO4, 1 mM DTT, 1 mM PMSF, 5 μg/ml each of protease inhibitors pepstatin, leupeptin, chymostatin, antipain and aprotinin. After rotating at 4° C. for up to 1 hour, nuclear membranes were pelleted by microcentrifugation for 10 minutes, and the clear supernatant (nuclear extract) was aliquoted and stored at −80° C. Protein concentration in the nuclear extract was determined by the Bio-Rad protein assay (Bio-Rad Laboratories, Hercules, Calif.).

[2] = Solubility of curcumin compounds; assay type: physicochemical; settings: dissolved in DMSO, veins of the rat
AP-1 [3] = assay: EMSA for AP-1 on nuclear extracts from pancreatic tissue; assay type: in vivo; settings: rat
Protocol: Specifically, aliquots of nuclear extracts with equal amounts of protein (about 2 to about 10 mg) were mixed in 20 μl reactions with a buffer containing 10 mM HEPES (pH 7.8), 50 mM KCl, 0.1 mM EDTA, 1 mM DTT, 10% (vol/vol) glycerol, and 3 μg of poly(dI-dC). Binding reactions were started by the addition of c. 60,000 cpm of ^32P-labeled DNA probe and allowed to proceed for about 20 to about 25 minutes at room temperature. The oligonucleotide probe for NF-κB:
5′-[sequence] (SEQ ID NO: 2), containing phorbol ester responsive element (TRE, underlined), were annealed with their complementary strands and end-labeled using Klenow DNA polymerase I (Stratagene, La Jolla, Calif.).
The samples were electrophoresed at room temperature in 0.5×TBE buffer (1× TBE: 89 mM Tris base, 89 mM boric acid, 2 mM EDTA) on a non-denaturing 4.5% polyacrylamide gel at 200 V. The gels were dried and directly analyzed in the PhosphorImager (Molecular Dynamics, Sunnyvale, Calif.).
Nuclear protein extracts were prepared by methods known in the art. […] Briefly, samples of pancreatic tissue or isolated acini were rinsed in ice-cold PBS and homogenized in hypotonic Buffer A (20 mM β-glycerophosphate, 10 mM HEPES, pH 7.6, 1.5 mM MgCl2, 10 mM KCl, 10 mM Na2MoO4, 0.1 mM Na3VO4, 1 mM dithiothreitol (DTT), 1 mM phenylmethylsulfonyl fluoride (PMSF), 5 μg/ml each of protease inhibitors pepstatin, leupeptin, chymostatin, antipain and aprotinin). After incubating on ice for about 20 to about 25 minutes, the nonionic detergent Igepal CA-630 (Sigma, St. Louis, Mo.) was added to a final concentration of 0.3 to 0.4% (v/v), followed by an additional incubation on ice for about 1 to about 2 minutes. The crude nuclear pellet was collected by microcentrifugation for 30 seconds. The supernatant (cytosolic protein) was removed, and the nuclear pellet was resuspended in the high-salt buffer C (25% glycerol, 20 mM β-glycerophosphate, 10 mM HEPES, 1.5 mM MgCl2, 420 mM NaCl, 0.2 mM EDTA, 10 mM Na2MoO4, 0.1 mM Na3VO4, 1 mM DTT, 1 mM PMSF, 5 μg/ml each of protease inhibitors pepstatin, leupeptin, chymostatin, antipain and aprotinin. After rotating at 4° C. for up to 1 hour, nuclear membranes were pelleted by microcentrifugation for 10 minutes, and the clear supernatant (nuclear extract) was aliquoted and stored at −80° C. Protein concentration in the nuclear extract was determined by the Bio-Rad protein assay (Bio-Rad Laboratories, Hercules, Calif.).

isolated acinar cells = assay: Amylase secretion in isolated acinar cells; assay type: cell-based, rat; settings: 100 μM curcumin, versus absence
Protocol: The effect of curcumin on amylase secretion in isolated acinar cells was assayed. Specifically, acinar cells were isolated using a collagenase digestion technique known in the art. Animals were sacrificed with CO2. The pancreas was removed and trimmed from mesentary and fat. […]
Amylase secretion was measured. […] Amylase activity was measured in each supernatant sample as well as the cellular sample and values for amylase release were calculated as the percentage of amylase activity in the cells at the beginning of the experiment that was release into the media during the experiment.
The absorbance was read with a spectrophotometer at 405 nm at 37° C. and the amylase activity in the samples was calculated by subtracting initial from the final readings. […]

cerulein-induced amylase secretion, of the basal amylase output (CCK receptor; rats treated with curcumin, 0.25 μg/kg cerulein i.v. bolus, 40 min, n=4): 1000±37%
LDH release (pancreatic acinar cells): did not cause additional LDH release
behaviour of DMSO solution diluted in saline on intravenous infusion [2]: precipitated
Structure (SMILES): COc1cc(/C=C/C(=O)CC(=O)/C=C/c2ccc(O)c(OC)c2)ccc1O [curcumin]
inhibition of NF-κB activation in CCK-stimulated acinar cells (NF-κB): very little inhibition
effect on cerulein/CCK-induced pancreatic secretion in vivo (CCK receptor; rat, versus without curcumin): not statistically different; also recorded: did not appear to have an effect
CCK-induced activation of AP-1 in isolated acinar cells (AP-1 [1]; 1 h with compound, then 0.1 μM CCK 30 min): inhibits; also recorded: abolished; also recorded: blocked; also recorded: attenuates
basal AP-1 binding activity in acinar cells (AP-1 [1]; isolated acinar cells without CCK): inhibited
AP-1 activation in the pancreas (AP-1 [3]; cerulein pancreatitis): markedly attenuated; also recorded: inhibited
AP-1 activation in the pancreas (AP-1 [3]; ethanol/CCK pancreatitis): almost completely blocked; also recorded: inhibited
amylase release elicited by maximal (1 nM) and supramaximal (100 nM) CCK-8 (isolated acinar cells): the same
